# From article PMC12257299 (RSC Advances, 2025)
# pIC50: −log10 of the molar value.
# Molecular target: GSK-3β (Homo sapiens, UniProt P49841)
# Assay: ADP-Glo kinase assay with Promega GSK-3β enzyme
# Type: biochemical
# Chain of GSK-3β (P49841 whole entry): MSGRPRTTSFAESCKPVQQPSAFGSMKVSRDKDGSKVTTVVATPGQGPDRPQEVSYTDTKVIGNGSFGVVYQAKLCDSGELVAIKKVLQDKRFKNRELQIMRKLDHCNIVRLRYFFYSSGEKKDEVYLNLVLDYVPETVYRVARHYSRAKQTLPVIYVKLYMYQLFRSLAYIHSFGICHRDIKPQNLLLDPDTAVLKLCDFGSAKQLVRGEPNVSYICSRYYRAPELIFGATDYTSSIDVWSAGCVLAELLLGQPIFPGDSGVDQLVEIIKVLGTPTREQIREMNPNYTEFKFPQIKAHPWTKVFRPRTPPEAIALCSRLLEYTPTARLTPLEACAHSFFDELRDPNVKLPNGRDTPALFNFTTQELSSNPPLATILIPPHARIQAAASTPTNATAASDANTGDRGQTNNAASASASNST
structure (smiles),measurement,value
"COc1ccc(Cn2cc(CN3C(=O)C(=NNc4ccccc4)c4ccccc43)nn2)cc1 [6Ec, 1-((1-(4-Methoxybenzyl)-1H-1,2,3-triazol-4-yl)methyl)-3-(2-phenylhydrazono) indolin-2-one]",pIC50,4.22
